As usually defined, the melting point is the temperature, or range, at which the solid turns liquid.

We go through two compounds from patent US6780995B2, “Activated iododerivatives for the treatment of cancer and aids” (Isotechnika Inc., priority 1997, dated 2004).

Structures are written as SMILES.

The test system of one data set is RPMI 8226 cells. Kind of data set: IC50 assay, inhibition of cell proliferation and growth, RPMI 8226. Format: cell-based. Particulars: Homo sapiens; RPMI 8226 myeloma cell line; read-out: IC50 Concentrations, RPM 18226. The protocol:
(§1) Cell culture: The human cell lines were propagated under sterile conditions in RPMI 1640 (CellGrow) with 10% fetal bovine serum (Hyclone), 2 mM L-glutamine, and sodium bicarbonate (complete medium) and incubated at 37° C. in HEPA-filtered Sterilcult CO2 tissue culture incubators (Forma) with 5% CO^2 and 95% humidity (Table 1). The murine leukemia cell lines were propagated in Dulbecco's MEM media with 10% equine serum (Hyclone), 2 mM L-glutamine, and sodium bicarbonate (complete medium) and incubated as described. The cells were subcultured twice weekly and used in experiments. The culture was screened for mycoplasma contamination using GeneProbe™ (Fisher) and positive cultures were cured of contaminants over three passages using constant treatment with BM-Cyclin™ antibiotic combination (Boehringer Mannheim). Only cultures confirmed as mycoplasma free were used in testing compounds for anticellular activity.
(§2) The test compounds were stored at 4° C. under light protected conditions. The test compounds were weighed and dissolved in DMSO. The dissolved compounds were then serially diluted in warm medium (RPMI 1640 or Dulbecco's MEM) under constant mixing to minimize precipitation. The positive control drug doxorubicin was diluted in water followed by dilution in media to achieve a final concentration of 200 nM.
(§3) For all experiments, the cells were harvested and centrifuged to remove the media, and suspended in fresh completed medium. Samples were taken to determine cell density. The cell count was determined with a Coulter Model Z1 cell counter and viability was measured with propidium iodide staining followed by analysis on a Coulter EPPICS Elite Flow cytometer. The cell samples sere adjusted with complete medium to a density of 5×10^4/mL for adherent cell lines and 1×10^5/mL for suspension lines. Tissue culture cluster plates (96 well, cat. No. 3595 Costar for adherent human lines and cat No. 25850 Corning for murine leukemias) were seeded with 100 μL cells and incubated as described. Replicate groups of plates were set up for each line to accommodate the exposure options for single agents and combinations. For each dilution 8 wells (100 μL samples of cells) were treated with 100 μL of dosing solution one day after plating. Each cluster plate contained a cell control (8 wells, mock-treated with complete medium), a medium control (3 wells with medium used to subtract out signal generated by media conditions), and an air blank (1 well, for calibrating the plate reader).
(§4) Using the procedures described above, concentrations of the Example compounds necessary to inhibit cell proliferation and growth by 50% (1C50 values) were determined in the test cell lines.
Regarding `O=C(Nc1nnc(C(F)(F)F)s1)c1cc([N+](=O)[O-])ccc1I` [Ref. No. 18], the IC50 is 16.7 µM.

For the compound `Cc1ccc(-c2csc(NC(=O)c3cc([N+](=O)[O-])ccc3I)n2)cc1` [Ref. No. 19, 2(2′-Iodo-5′-Nitro-Benzamido)-4-tolyl-Thiazole], the IC50 is 11.8 µM.

Test system in a further data set: not given
Test: not given
Settings: not given
`O=C(Nc1nnc(C(F)(F)F)s1)c1cc([N+](=O)[O-])ccc1I` [Ref. No. 18] yielded a melting point of 219 to 221 °C.

As to `Cc1ccc(-c2csc(NC(=O)c3cc([N+](=O)[O-])ccc3I)n2)cc1` [Ref. No. 19, 2(2′-Iodo-5′-Nitro-Benzamido)-4-tolyl-Thiazole], the melting point was in the range of 244 to 248 °C.

The subject of another data set is P388 cells. Kind of data set: IC50 assay (XTT), inhibition of cell proliferation and growth, P388. Format: cell-based. Particulars: Mus musculus; P388 murine leukemia cell line; XTT dye conversion; read-out: IC50 Concentrations, P388. The protocol: as §1, §2, §3
(§5) Anticellular effects of the murine leukemia cell lines were assessed with the XTT dye conversion assay which is more suited to suspension cultures. On the day of analysis XTT[2,3-bis(2-methoxy-4-nitro-5-sulfophenyl)-5-[(phenylamino)carbenyl]-2H-tetrazolium hydroxide, inner salt, sodium salt (Sigma)] was weighed out and dissolved at 1 mg/mL in media. PMS (phenazine methosulfate) was prepared at 5 mM in PBS (phosphate buffered saline) and stored as a stock solution 4° C. The PMS was mixed with dissolved XTT to a final concentration of 0.025 mM. Sample wells were treated with 50 μL of the XTT solution and the plates were incubated for four hours at 37° C. to allow for conversion into the liquid soluble formazan product. After the incubation period the reaction was stopped by adding 10 μL of 10% SDS solution per well and the wells contents of each plate were mixed by agitation. The absorbancy of formazan in each monolayer was measured at 450 nm (620 nm reference beam) on a Denley Anthos 2001 microplate reader. The data were transferred via the ARCOM software capture program into Lotus 1-2-3 for processing.
as §4
On the technique in general: Formazan colour is commonly taken as a measure of viable cells.
`O=C(Nc1nnc(C(F)(F)F)s1)c1cc([N+](=O)[O-])ccc1I` [Ref. No. 18]: the IC50 was 12.8 µM.

Take `Cc1ccc(-c2csc(NC(=O)c3cc([N+](=O)[O-])ccc3I)n2)cc1` [Ref. No. 19, 2(2′-Iodo-5′-Nitro-Benzamido)-4-tolyl-Thiazole]: the IC50 was 2.43 µM.

The subject of the next data set is SK-OV-3 cells. Kind of data set: IC50 assay, inhibition of cell proliferation and growth, SK-OV-3. Format: cell-based, human. The settings on record: Homo sapiens; SK-OV-3 ovarian adenocarcinoma cell line; neutral red or crystal violet; read-out: IC50 Concentrations, SK-OV-3. As for the experimental part:
as §1, §2, §3
(§6) Anticellular effects of the compounds for the adherent cell lines were assessed with neutral red dye. On the day of analysis, the media was removed from sample cell monolayers and replaced with 0.1 mL of neutral red solution (0.5% neutral red, HBSS:RPMI 1640 (1:1), 0.05 M HEPES, pH 7.2). After incubation of the samples at 37° C. for 1 hour the excess dye was removed with blotting and the monolayers were washed twice with 0.85% NaCl solution (0.1 mL per wash). The cell associated dye was extracted by adding 0.2 mL of a 0.1 M NaH2PO4:ethanol (1:1) solution/well followed by incubation for 1 hour at 35° C. The absorbency of neutral red in each monolayer was measured at 550 nm (620 nm reference beam) on a Denley Anthos 2001 microplate reader. The data were transferred via the ARCOM software capture program in Lotus 1-2-3 for processing.
(§7) In assays where technical difficulties due to crystalization of the neutral red occurred the crystal violet staining procedure was employed to measure the amount of cells were left on the plate. Crystal violet staining solution [0.5% crystal violet (w/v), 50% methanol (v/v), 45% saline (v/v), and 5% formalin (v/v)] were prepared on the day of staining. After the media was removed from the sample wells, two drops of crystal violet stain were added to each well and the samples were incubated at ambient temperature for 10 minutes. […]
Take `O=C(Nc1nnc(C(F)(F)F)s1)c1cc([N+](=O)[O-])ccc1I` [Ref. No. 18]: the IC50 turned out to be 73 µM.

On to `Cc1ccc(-c2csc(NC(=O)c3cc([N+](=O)[O-])ccc3I)n2)cc1` [Ref. No. 19, 2(2′-Iodo-5′-Nitro-Benzamido)-4-tolyl-Thiazole], for which the IC50 came out at 33.2 µM.

The subject of a further data set is COLO 205 cells. Kind of data set: IC50 assay, inhibition of cell proliferation and growth, COLO 205. The settings on record: Homo sapiens; COLO 205 colon adenocarcinoma cell line; neutral red or crystal violet; read-out: IC50 Concentrations, COLO 205. Format: cell-based, human. As for the experimental part: as §1, §2, §3, §6, §7
Regarding `O=C(Nc1nnc(C(F)(F)F)s1)c1cc([N+](=O)[O-])ccc1I` [Ref. No. 18], the IC50 is 41.3 µM.

On to `Cc1ccc(-c2csc(NC(=O)c3cc([N+](=O)[O-])ccc3I)n2)cc1` [Ref. No. 19, 2(2′-Iodo-5′-Nitro-Benzamido)-4-tolyl-Thiazole], for which the IC50 is 18.2 µM.

The next data set relates to M14 cells. The experiment in a line: IC50 assay, inhibition of cell proliferation and growth, M14. Type of data set: cell-based, human. The settings on record: Homo sapiens; M14 melanoma cell line; neutral red or crystal violet; read-out: IC50 Concentrations, M14. As for the experimental part: as §1, §2, §3, §6, §7
Regarding `O=C(Nc1nnc(C(F)(F)F)s1)c1cc([N+](=O)[O-])ccc1I` [Ref. No. 18], the IC50 came to 27.3 µM.

`Cc1ccc(-c2csc(NC(=O)c3cc([N+](=O)[O-])ccc3I)n2)cc1` [Ref. No. 19, 2(2′-Iodo-5′-Nitro-Benzamido)-4-tolyl-Thiazole]: the IC50 is 14.4 µM.

Another data set deals with A549 cells. Kind of data set: IC50 assay, inhibition of cell proliferation and growth, A549. Type of data set: cell-based, human. The settings on record: Homo sapiens; A549 bronchogenic cell line; neutral red or crystal violet; read-out: IC50 Concentrations, A 549. The protocol:
as §1, §2, §3, §6, §7
Take `O=C(Nc1nnc(C(F)(F)F)s1)c1cc([N+](=O)[O-])ccc1I` [Ref. No. 18]: the IC50 was 15.7 µM.

Turning to `Cc1ccc(-c2csc(NC(=O)c3cc([N+](=O)[O-])ccc3I)n2)cc1` [Ref. No. 19, 2(2′-Iodo-5′-Nitro-Benzamido)-4-tolyl-Thiazole], the IC50 was 163 µM.

The subject of another data set is SK-MEL-5 cells. The experiment in a line: IC50 assay, inhibition of cell proliferation and growth, SK-MEL-5. Type of data set: cell-based, human. Particulars: Homo sapiens; SK-MEL-5 melanoma cell line; neutral red or crystal violet; read-out: IC50 Concentrations, SK MEL-5. The protocol: as §1, §2, §3, §6, §7
For `O=C(Nc1nnc(C(F)(F)F)s1)c1cc([N+](=O)[O-])ccc1I` [Ref. No. 18], the IC50 came out at 28.8 µM.

For `Cc1ccc(-c2csc(NC(=O)c3cc([N+](=O)[O-])ccc3I)n2)cc1` [Ref. No. 19, 2(2′-Iodo-5′-Nitro-Benzamido)-4-tolyl-Thiazole], the IC50 was 51.3 µM.

The subject of a further data set is B16 cells. The experiment in a line: IC50 assay, inhibition of cell proliferation and growth, B16. Particulars: Mus musculus; B16 murine melanoma cell line; neutral red or crystal violet; read-out: IC50 Concentrations, B16. Format: cell-based. The protocol:
as §1, §2, §3, §6, §7
Consider `O=C(Nc1nnc(C(F)(F)F)s1)c1cc([N+](=O)[O-])ccc1I` [Ref. No. 18], for which the IC50 turned out to be 20.8 µM.

As for `Cc1ccc(-c2csc(NC(=O)c3cc([N+](=O)[O-])ccc3I)n2)cc1` [Ref. No. 19, 2(2′-Iodo-5′-Nitro-Benzamido)-4-tolyl-Thiazole], the IC50 was 5.15 µM.

A further data set has as its system MCF7 cells. The experiment in a line: IC50 assay, inhibition of cell proliferation and growth, MCF7. Format: cell-based, human. Particulars: Homo sapiens; MCF7 breast adenocarcinoma cell line; neutral red or crystal violet; read-out: IC50 Concentrations, MCF 7. As for the experimental part: as §1, §2, §3, §6, §7
For `O=C(Nc1nnc(C(F)(F)F)s1)c1cc([N+](=O)[O-])ccc1I` [Ref. No. 18], the IC50 was 24 µM.

Take `Cc1ccc(-c2csc(NC(=O)c3cc([N+](=O)[O-])ccc3I)n2)cc1` [Ref. No. 19, 2(2′-Iodo-5′-Nitro-Benzamido)-4-tolyl-Thiazole]: the IC50 amounted to 35.5 µM.

In the next data set the test system is L1210 cells. Kind of data set: IC50 assay (XTT), inhibition of cell proliferation and growth, L1210. Particulars: Mus musculus; L1210 murine leukemia cell line; XTT dye conversion; read-out: IC50 Concentrations, L1210. Type of data set: cell-based. The protocol:
as §1, §2, §3, §5, §4
Regarding `O=C(Nc1nnc(C(F)(F)F)s1)c1cc([N+](=O)[O-])ccc1I` [Ref. No. 18], the IC50 came to 28.4 µM.

In the case of `Cc1ccc(-c2csc(NC(=O)c3cc([N+](=O)[O-])ccc3I)n2)cc1` [Ref. No. 19, 2(2′-Iodo-5′-Nitro-Benzamido)-4-tolyl-Thiazole], the IC50 worked out at 13.5 µM.
